Patent publication US11903916B2, “Methods of using probenecid for treatment of coronavirus infections” (University of Georgia Research Foundation, Inc., priority 2020, dated 2024)
Where two headings read alike, the source gives them in different places.

Tests used:
SARS-CoV-2 [1] = type: cell-based; details: for reduction in plaque formation compared to DMSO treated infected control: 24 h pre-treatment, Vero E6, MOI 0.01, 4 days
SARS-CoV-2 [2] = type: cell-based; details: for reduction in plaque formation compared to DMSO treated infected control: post-treatment after 1 hour infection, Vero E6, MOI 0.01, 4 days, FIG. 3

SMILES: CCCN(CCC)S(=O)(=O)c1ccc(C(=O)O)cc1 [Probenecid, 4-[(dipropylamino)sulfony1] benzoic acid]
- viral titer/plaque formation (SARS-CoV-2 [1]; 24 hour pretreatment at the concentrations tested): significantly reduces viral titer/plaque formation
- reduction in plaque formation compared to DMSO treated infected control (SARS-CoV-2 [1]; probenecid 0.0001 μM, another experiment, FIG. 2): ~50%
- reduction in plaque formation compared to DMSO treated infected control (SARS-CoV-2 [1]; probenecid 0.1 μM, FIG. 1): ~72%
- viral titer/plaque formation (SARS-CoV-2 [2]; post-treatment at the concentrations tested): significantly reduces viral titer/plaque formation
- reduction in plaque formation compared to DMSO treated infected control (SARS-CoV-2 [2]; probenecid 0.0001 μM): ~40%
- reduction in plaque formation compared to DMSO treated infected control (SARS-CoV-2 [2]; probenecid 5 μM): ~90%
